# Measured values: publication PMC3927067 (Journal of Computer-Aided Molecular Design, 2014)
# Several values for one entry are separate records, joined by “and”; a condition that tells them apart may be missing. Identical values can stand only once. Like-named read-outs stand apart in the source and are kept apart here.
# Assays:
# [1] = biological target: T1, hOX1R (Homo sapiens, UniProt O43613); assay: Orexin 1 receptor binding assay
# T1 sequence (O43613 1-425): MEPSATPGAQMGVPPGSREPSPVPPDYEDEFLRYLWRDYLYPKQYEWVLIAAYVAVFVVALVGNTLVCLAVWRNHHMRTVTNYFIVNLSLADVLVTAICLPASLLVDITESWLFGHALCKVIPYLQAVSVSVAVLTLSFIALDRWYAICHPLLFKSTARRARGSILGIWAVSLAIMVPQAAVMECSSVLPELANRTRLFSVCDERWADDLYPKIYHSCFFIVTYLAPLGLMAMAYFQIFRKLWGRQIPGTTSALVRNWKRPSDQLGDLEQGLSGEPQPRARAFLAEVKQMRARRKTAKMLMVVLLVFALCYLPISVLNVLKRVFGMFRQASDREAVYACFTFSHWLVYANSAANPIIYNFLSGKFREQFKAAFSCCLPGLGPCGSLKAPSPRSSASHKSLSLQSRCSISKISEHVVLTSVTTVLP
# [2] = biological target: T2, hOX2R (Homo sapiens, UniProt O43614); assay: Orexin 2 receptor binding assay
# T2 sequence (O43614 1-444): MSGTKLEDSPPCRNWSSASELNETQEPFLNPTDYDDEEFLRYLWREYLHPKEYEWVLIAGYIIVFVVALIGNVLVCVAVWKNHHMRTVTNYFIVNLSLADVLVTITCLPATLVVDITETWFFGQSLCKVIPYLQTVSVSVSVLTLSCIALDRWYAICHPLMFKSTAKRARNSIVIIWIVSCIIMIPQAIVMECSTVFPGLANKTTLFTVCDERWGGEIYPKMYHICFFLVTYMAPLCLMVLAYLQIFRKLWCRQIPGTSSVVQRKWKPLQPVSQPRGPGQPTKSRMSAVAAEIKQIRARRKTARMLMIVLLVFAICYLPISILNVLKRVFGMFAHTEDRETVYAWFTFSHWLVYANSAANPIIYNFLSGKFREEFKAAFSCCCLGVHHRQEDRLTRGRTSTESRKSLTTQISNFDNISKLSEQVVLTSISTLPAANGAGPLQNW
# [3] = NMR solution conformation (NOE); type: physicochemical; conditions: CD3OD at −40 °C
# Excerpt: Although the molecular and quantum mechanical methods were in agreement with one another, we sought additional experimental methods to either support or refute our initial computational findings. We first determined the unbound, small-molecule crystal structure. The RMSD between the computationally derived conformation depicted in Fig. 1 and the X-ray structure was 0.75 Å (non-hydrogen atoms). Additionally, no differences between the geometries of the nitrogen atoms of the seven-membered ring nor the amide bond were observed between the theoretically and experimentally derived conformations. Even though there was no computed difference between the conformations (Table 1) when implicit solvent was invoked, we sought to experimentally confirm that the solution state conformation was consistent with the aforementioned theoretical and crystal structure experiments. There was again excellent agreement from NMR spectroscopy applied to compound 1, with NOE evidence for the F2F interaction in the major rotamer. In fact, two F2F rotamers in the ensemble accounted for 82 % of the total solution conformation (CD3OD at −40 °C), each with a motif similar to that found by computational analysis and X-ray structure.
# [4] = design: method as in PMID 20565075; conditions: cited from earlier work
# [5] = cited from earlier work
# [6] = Toxicology profile
# [7] = system: preclinical species; assay: In vivo sleep promotion
# [8] = Brain/plasma ratio, iv infusion study; conditions: rat
# [9] = mean of replicates, read-out: OX1R Ki
# [10] = supplement, individual replicates, Ki and nM taken from Table 3, read-out: OX1R individual replicate
# [11] = supplement, unlabelled mean below the replicates, Ki and nM taken from b8/Table 3, read-out: OX1R mean of replicates
# [12] = mean of replicates, read-out: OX2R Ki
# [13] = supplement, individual replicates, Ki and nM taken from Table 3, read-out: OX2R individual replicate
# [14] = supplement, unlabelled mean below the replicates, Ki and nM taken from b8/Table 3, read-out: OX2R mean of replicates
compound,measurement,setting,value
O=C(c1cc(Cl)ccc1-n1nccn1)N1CC2CC(C1)N(c1ncc3cc(F)ccc3n1)C2 (stereo not drawn) [Compound 4],Ki,[1]; [9],0.4 nM
same,Ki,[1]; [10],0.43 nM and 0.42 nM
same,Ki,[1]; [11],0.425 nM
same,Ki,[2]; [12],0.6 nM
same,Ki,[2]; [13],0.66 nM and 0.57 nM
same,Ki,[2]; [14],0.615 nM
Cc1ccc(-n2nccn2)c(C(=O)N2CCCN(c3ncc4ccccc4n3)CC2)c1 [Compound 1],share of two F2F rotamers in total solution conformation,[3],82%
same,Ki,[1]; [9],1.2 nM
same,Ki,[1]; [10],2.2 nM and 0.71 nM and 0.58 nM and 1.3 nM and 0.94 nM and 0.62 nM and 0.54 nM and 2.4 nM and 1.4 nM
same,Ki,[1]; [11],1.2 nM
same,Ki,[2]; [12],0.8 nM
same,Ki,[2]; [13],0.773 nM and 0.86 nM and 1.01 nM and 0.775 nM and 0.811 nM and 0.65 nM and 0.64 nM and 0.61 nM and 0.57 nM and 0.606 nM and 0.41 nM and 0.72 nM and 0.754 nM and 0.866 nM and 0.905 nM and 0.731 nM and 1.31 nM and 0.954 nM and 0.71 nM
C[C@@H]1CCN(c2ncc3cc(F)ccc3n2)CCN1C(=O)c1cc(Cl)ccc1-n1nccn1 [Compound 6],Ki,[1]; [9],0.6 nM
same,Ki,[1]; [10],0.9 nM and 0.31 nM
same,Ki,[1]; [11],0.605 nM
same,Ki,[2]; [12],0.2 nM
same,Ki,[2]; [13],0.19 nM and 0.11 nM
same,Ki,[2]; [14],0.15 nM
same,in vivo activity,[4],excellent in vivo activity
same,metabolic liability,[5],metabolic liability
Cc1ccc(-n2nccn2)c(C(=O)N2CC3CC2CCN3c2ncc3cc(F)ccc3n2)c1 (stereo not drawn) [Compound 5],times less active than compound 4,"[1]; binding, relative to compound 4, receptor not specified","> 1,000 times"
same,Ki,[1]; [9],> 1700 nM
same,Ki,[2]; [12],2740 nM
same,Ki,[2]; [13],2800 nM and 2280 nM and 3150 nM
same,Ki,[2]; [14],2740 nM
"Cc1ccc(-n2nccn2)c(C(=O)N2CCN(c3nc4cc(Cl)ccc4o3)CC[C@H]2C)c1 [Compound 7, Suvorexant]",toxicology profile,[6],favorable toxicology profile
same,sleep promotion in vivo,[7],promote sleep in preclinical species in a dose dependent fashion
same,Kp,"[8]; brain and plasma, iv",0.6 to 1.2
same,CNS penetration,[8]; iv infusion study,CNS penetrant
same,metabolic issues,[5]; benzoxazole replacing quinazoline ring,devoid of the metabolic issues
